Earlier results, collected in patent publication US20110052727A1, “Anti Influenza Nutritional Supplements” (priority 2009, published 2011).
Read-outs that look alike come from different tables or passages of the source.

Key:
[1] = system: influenza A/Kumamoto/1/65 virus
MDCD cells = details: 100 μg/ml
MDCK cells [2] = details: up to 1 mM
[3] = system: influenza virus A/Puerto Rico/8/34 (H1N1)
[4] = system: influenza virus A/Udorn/317/72(H3N2); details: quercetin orally 1 mg/day for 5 consecutive days
influenza A Bangkok 1/79 = details: Se- vs Se+ conditions; 24 hours post infection
[5] = system: influenza A/Bangkok/1/79 virus; details: selenium adequate diet, vs deficient diet still severe at day 21
[6] = system: influenza A/Chile/1/83 (H1N1) virus; details: MDCK cells; read-out: 50% effective inhibition concentration (EC50)
[7] = system: influenza A/Chile/1/83 (H1N1) virus; details: 500 μM
neuraminidase = details: read-out: concentration for reduction of half enzymatic activity (neuraminidase)
MDCK cells [8] = details: read-out: dose that reduced cell viability about 50% (CC50)
[9] = system: influenza A/Chile/1/83 (H1N1) virus; details: compared with ECG and EGC
MDCK cells [10] = system: MDCK cells
[11] = system: Influenza A Virus (Strain A/Yamagata/120/86 H1N1); details: 1.5 μM; 60 min treatment

**Q.** With `O=C/C=C/c1ccccc1` [CA, trans-cinnamaldehyde] as the compound, how does the “virus yield of control (maximum inhibitory effect)” value (influenza A/PR/8 virus; 40 μM, treatment given 3 hours post infection) read?
**A.** Its value is 29.7%.

**Q.** What about the virus yield (influenza A/PR/8 virus; 200 μM) of the same compound?
**A.** Its virus yield is “undetectable level”.

**Q.** Which survival ([1]; 10 mg/kg 1 day before and 1 and 4 days post infection, 10-50% lethal doses, saline controls no survivors) does the source give for `CC1(C)[C@@H](O[C@H]2O[C@H](C(=O)O)[C@@H](O)[C@H](O)[C@H]2O[C@@H]2O[C@H](C(=O)O)[C@@H](O)[C@H](O)[C@H]2O)CC[C@]2(C)[C@H]3C(=O)C=C4[C@@H]5C[C@@](C)(C(=O)O)CC[C@]5(C)CC[C@@]4(C)[C@]3(C)CC[C@@H]12` [Glycyrrhizin] here?
**A.** The survival was “survived over the 21-day experimental period”.

**Q.** And the “virus titers in the lungs, times lower than control mice” value ([1]; 2 to 6 days after the infection)?
**A.** The value was “more than 10 times”.

**Q.** What about the “viral activity in the lungs” value ([1]; day 6) of the same compound?
**A.** Its value is “not detected”.

**Q.** For `CCOC(=O)C1=C[C@@H](OC(CC)CC)[C@H](NC(C)=O)[C@@H](N)C1` [Oseltamivir, reference compound], which antiviral activity (influenza A/WS/33 virus; 100 μg/ml, 2 days incubation) is on record?
**A.** The antiviral activity was “about 58%”.

**Q.** And the antiviral activity (influenza A/WS/33 virus; concentrations of less than 10 μg/ml)?
**A.** The antiviral activity was “less than 49%”.

**Q.** What about the cell viability (MDCD cells) of the same compound?
**A.** Its cell viability is “about 100%”.

**Q.** Which antiviral activity (influenza A/WS/33 virus; 10 μg/ml, 2 days incubation) does the source give for `C[C@@H]1O[C@@H](Oc2c(-c3ccc(O)c(O)c3)oc3cc(O)cc(O)c3c2=O)[C@H](O)[C@H](O)[C@H]1O` [Q3R, quercetin 3-rhamnoside] here?
**A.** Its antiviral activity is “about 66%”.

**Q.** What about the antiviral activity (influenza A/WS/33 virus; 100 μg/ml, 2 days incubation) of the same compound?
**A.** The antiviral activity was “about 86%”.

**Q.** What about the cell viability (MDCD cells) of the same compound?
**A.** Its cell viability is “about 100%”.

**Q.** For `NC(=O)c1c[se]c([C@@H]2O[C@H](CO)[C@@H](O)[C@H]2O)n1` [Selenazofurin, selenazofurin], which “cytotoxic effect on cells” value (MDCK cells [2]) is on record?
**A.** Its value is “no cytotoxic effect”.

**Q.** Which “decrease of mortality in the control group (infected and did not exercise)” value ([3]; quercetin 12.5 mg/kg via gavage for 7 days before viral challenge, 21 days monitoring) does the source give for `O=c1c(O)c(-c2ccc(O)c(O)c2)oc2cc(O)cc(O)c12` [quercetin, Quercetin] here?
**A.** The value was 22%.

**Q.** What about the “susceptibility to infection (morbidity, mortality, symptom severity on days 5-7) associated with stressful exercise” value ([3]; quercetin 12.5 mg/kg via gavage for 7 days, P<0.05) of the same compound?
**A.** Its value is “offset the increase in susceptibility to infection”.

**Q.** What about the “epithelial damage and leukocytic influx” value [4] of the same compound?
**A.** The value was “significantly reduced”.

**Q.** What about the “superoxide radicals production levels” value [4] of the same compound?
**A.** The value was “significantly reduced their levels”.

**Q.** And the “lipid peroxidation (LPO) products level after supplementation (raised by 85% in influenza group vs normal control)” value ([4]; P<0.05)?
**A.** The value was 43%.

**Q.** Which results are given for `[Se]` [selenium, Selenium]?
**A.** influenza-induced apoptosis (influenza A Bangkok 1/79): Se deficiency enhanced influenza-induced apoptosis; lung pathology [5]: began to diminish after day 6

**Q.** For (−)-epigallocatechin gallate [EGCG], which EC50 [6] is on record?
**A.** The EC50 was 22 to 28 µM.

**Q.** What about the “inhibition of viral RNA synthesis” value [7] of the same compound?
**A.** The value was “about 80%”.

**Q.** What about the IC50 (neuraminidase) of the same compound?
**A.** The IC50 was ~350 µM.

**Q.** And the CC50 (MDCK cells [8])?
**A.** The CC50 was 275 ± 22.8 µM.

**Q.** And the hemagglutination inhibition activity [9]?
**A.** The hemagglutination inhibition activity was “most effective”.

**Q.** What about the “toxicity relative to derivatives” value (MDCK cells [10]) of the same compound?
**A.** Its value is “less toxic than most of its derivatives”.

**Q.** And the “inhibition of plaque forming activity” value [11]?
**A.** The value was ~100%.
